Assay results as given in the NIST ThermoML archive (doi:10.1021/je049671t).

Assay: xn = mol fraction of the nth substance listed
Details: Liquid, Vibrating tube method

CC(C)C [2-methylpropane] + CCC
Details	mass density [kg/m3]
300 K, 4958.9 kPa, x2 = 0.499	533.34
300 K, 4994.5 kPa, x2 = 0.75	518.46
300 K, 5016.4 kPa, x2 = 0.25	547.38
300 K, 5458.6 kPa, x2 = 0.499	534.46
300 K, 5458.9 kPa, x2 = 0.75	519.57
300 K, 5511.8 kPa, x2 = 0.25	548.38
300 K, 5960.9 kPa, x2 = 0.75	520.74
300 K, 5975.7 kPa, x2 = 0.499	535.56
300 K, 6025.1 kPa, x2 = 0.25	549.47
300 K, 6473 kPa, x2 = 0.75	521.92
300 K, 6516 kPa, x2 = 0.25	550.41
300 K, 6517.3 kPa, x2 = 0.499	536.72
300 K, 6954.6 kPa, x2 = 0.75	522.99
300 K, 6957 kPa, x2 = 0.25	551.23
300 K, 6984.7 kPa, x2 = 0.499	537.69
320 K, 1020.5 kPa, x2 = 0.25	509.69
320 K, 1325.3 kPa, x2 = 0.75	475.52
320 K, 1461.2 kPa, x2 = 0.499	494.61
320 K, 1500 kPa, x2 = 0.25	511.28
320 K, 1505.3 kPa, x2 = 0.75	476.31
320 K, 2021.1 kPa, x2 = 0.75	478.51
320 K, 2023.3 kPa, x2 = 0.25	512.94
320 K, 2041.5 kPa, x2 = 0.499	496.75
320 K, 2488.7 kPa, x2 = 0.499	498.31
320 K, 2517.7 kPa, x2 = 0.75	480.54
320 K, 2522.2 kPa, x2 = 0.25	514.49
320 K, 3007.6 kPa, x2 = 0.25	515.95
320 K, 3023.9 kPa, x2 = 0.499	500.12
320 K, 3025.6 kPa, x2 = 0.75	482.53
320 K, 3506.4 kPa, x2 = 0.75	484.35
320 K, 3508.1 kPa, x2 = 0.25	517.4
320 K, 3550 kPa, x2 = 0.499	501.84
320 K, 3994.2 kPa, x2 = 0.75	486.12
320 K, 4022.9 kPa, x2 = 0.25	518.87
320 K, 4037.4 kPa, x2 = 0.499	503.38
320 K, 4507.7 kPa, x2 = 0.75	487.92
320 K, 4522.1 kPa, x2 = 0.25	520.26
320 K, 4530.4 kPa, x2 = 0.499	504.9
320 K, 4954.2 kPa, x2 = 0.499	506.17
320 K, 4968 kPa, x2 = 0.75	489.5
320 K, 4990.1 kPa, x2 = 0.25	521.53
320 K, 5517.3 kPa, x2 = 0.25	522.93
320 K, 5527.2 kPa, x2 = 0.75	491.33
320 K, 5545.8 kPa, x2 = 0.499	507.9
320 K, 5997.3 kPa, x2 = 0.499	509.24
320 K, 6001.8 kPa, x2 = 0.25	524.19
320 K, 6003.6 kPa, x2 = 0.75	492.85
320 K, 6479.8 kPa, x2 = 0.25	525.39
320 K, 6495 kPa, x2 = 0.75	494.38
320 K, 6524.9 kPa, x2 = 0.499	510.74
320 K, 6930.3 kPa, x2 = 0.499	511.85
320 K, 6964.1 kPa, x2 = 0.25	526.6
320 K, 7044.7 kPa, x2 = 0.75	496.03
340 K, 1514.2 kPa, x2 = 0.25	479.11
340 K, 2002.6 kPa, x2 = 0.499	459.37
340 K, 2028 kPa, x2 = 0.25	481.6
340 K, 2456 kPa, x2 = 0.499	461.99
340 K, 2489.8 kPa, x2 = 0.75	441.74
340 K, 2523.8 kPa, x2 = 0.25	483.92
340 K, 2981.6 kPa, x2 = 0.499	464.85
340 K, 3027.2 kPa, x2 = 0.25	486.13
340 K, 3027.4 kPa, x2 = 0.75	445.39
340 K, 3485.7 kPa, x2 = 0.499	467.47
340 K, 3510.1 kPa, x2 = 0.75	448.46
340 K, 3532.9 kPa, x2 = 0.25	488.26
340 K, 3969 kPa, x2 = 0.75	451.17
340 K, 4012.5 kPa, x2 = 0.499	470.04
340 K, 4015.7 kPa, x2 = 0.25	490.21
340 K, 4498.6 kPa, x2 = 0.75	454.09
340 K, 4503 kPa, x2 = 0.25	492.08
340 K, 4508.4 kPa, x2 = 0.499	472.34
340 K, 4963.1 kPa, x2 = 0.75	456.51
340 K, 4964.9 kPa, x2 = 0.25	493.81
340 K, 4990.6 kPa, x2 = 0.499	474.5
340 K, 5450.5 kPa, x2 = 0.499	476.5
340 K, 5511.1 kPa, x2 = 0.75	459.22
340 K, 5522.3 kPa, x2 = 0.25	495.84
340 K, 5960.4 kPa, x2 = 0.75	461.33
340 K, 5982 kPa, x2 = 0.499	478.68
340 K, 6022.3 kPa, x2 = 0.25	497.59
340 K, 6506.1 kPa, x2 = 0.75	463.79
340 K, 6513 kPa, x2 = 0.499	480.75
340 K, 6527.5 kPa, x2 = 0.25	499.31
340 K, 6963 kPa, x2 = 0.25	500.75
340 K, 7045.5 kPa, x2 = 0.499	482.76
340 K, 7081.1 kPa, x2 = 0.75	466.25
360 K, 2023.3 kPa, x2 = 0.25	441.34
360 K, 2495.4 kPa, x2 = 0.499	418.03
360 K, 2532.9 kPa, x2 = 0.25	445.56
360 K, 2996.3 kPa, x2 = 0.499	423.54
360 K, 3022.3 kPa, x2 = 0.25	449.26
360 K, 3496.3 kPa, x2 = 0.499	428.34
360 K, 3518.2 kPa, x2 = 0.75	399.53
360 K, 3519.8 kPa, x2 = 0.25	452.71
360 K, 3960 kPa, x2 = 0.75	405.21
360 K, 3971.4 kPa, x2 = 0.75	405.35
360 K, 3988.8 kPa, x2 = 0.499	432.58
360 K, 4022.3 kPa, x2 = 0.25	455.95
360 K, 4484.8 kPa, x2 = 0.75	411.08
360 K, 4488.6 kPa, x2 = 0.499	436.48
360 K, 4520.2 kPa, x2 = 0.25	458.95
360 K, 4923.7 kPa, x2 = 0.75	415.42
360 K, 4983.9 kPa, x2 = 0.25	461.58
360 K, 5000.3 kPa, x2 = 0.499	440.17
360 K, 5436.6 kPa, x2 = 0.499	443.06
360 K, 5456.3 kPa, x2 = 0.75	420.47
360 K, 5515.2 kPa, x2 = 0.25	464.45
360 K, 5932 kPa, x2 = 0.75	424.33
360 K, 5982.9 kPa, x2 = 0.25	466.86
360 K, 5992.3 kPa, x2 = 0.499	446.54
360 K, 6444.6 kPa, x2 = 0.25	469.09
360 K, 6487.4 kPa, x2 = 0.499	449.41
360 K, 6509.8 kPa, x2 = 0.75	428.41
360 K, 6932.1 kPa, x2 = 0.75	431.05
360 K, 6956.4 kPa, x2 = 0.25	471.48
360 K, 6977 kPa, x2 = 0.499	452.14
380 K, 2977.2 kPa, x2 = 0.25	394.6
380 K, 3495.5 kPa, x2 = 0.25	403.43
380 K, 3540.7 kPa, x2 = 0.499	358.66
380 K, 3969.5 kPa, x2 = 0.25	409.99
380 K, 4047.9 kPa, x2 = 0.499	373.76
380 K, 4453.9 kPa, x2 = 0.25	415.7
380 K, 4501.9 kPa, x2 = 0.499	383.09
380 K, 5016 kPa, x2 = 0.499	391.43
380 K, 5019.6 kPa, x2 = 0.25	421.52
380 K, 5488.5 kPa, x2 = 0.25	425.84
380 K, 5506.7 kPa, x2 = 0.499	398.06
380 K, 5943.1 kPa, x2 = 0.499	403.16
380 K, 5972.1 kPa, x2 = 0.25	429.89
380 K, 6422.5 kPa, x2 = 0.499	408.17
380 K, 6471.8 kPa, x2 = 0.25	433.74
380 K, 6885.8 kPa, x2 = 0.499	412.58
380 K, 7060.8 kPa, x2 = 0.25	437.93

mass density [kg/m3]
Details	300 K	320 K	340 K	360 K	380 K
x2 = 0.25	537.31	509.12	478.17	440.78	390.71
x2 = 0.499	522.96	491.75	457.03	416.83	346.9
x2 = 0.75	507.33	475.51	436.07	388.35	–
